Experimental data as given in patent US9879008B2, “2,3,4,6-tetra-substituted benzene-1,5-diamine derivatives, preparation method therefor and medicinal use thereof” (SHANGHAI HAIYAN PHARMACEUTICAL TECHNOLOGY CO., LTD., priority 2014, dated 2018).

Legend:
[1] = system: H1975 cells; experiment: ELISA assay for cell activity of EGFR T790M inhibitor, H1975 cells; details: for Selective inhibitory activities against cell [IC50(A431 cell)/IC50(H1975 cell)]: ELISA, ratio of cell IC50 values; for IC50: Homo sapiens, NCI-H1975, 1 h, read-out: H1975 cell (IC50/nM)
[2] = system: H1975 cell; experiment: MTT cytostatic activity, H1975 cell; format: cell-based; details: MTT; for IC50: Homo sapiens, NCI-H1975, 72 h, read-out: H1975 cell (IC50/nM); for Selective inhibitory activity against cells [IC50(A431 cell)/IC50(H1975 cell)]: ratio of cell IC50 values;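 as to all read-outs here: cells in 96-well plates exposed to compound for 72 h, then given MTT for a further 4 h at 37 °C under 5% CO2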
[3] = system: A431 cell; experiment: MTT cytostatic activity, A431 cell; format: cell-based; details: Homo sapiens, A-431; MTT, 72 h; read-out: A431 cell (IC50/nM)
[4] = target: T1, wild-type EGFR kinase (Homo sapiens, UniProt P00533); experiment: z-lyte inhibition test against wild-type EGFR kinase; format: biochemical; details: 10 μM ATP, read-out: EGFR WT (IC50/nM);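 also: reaction volume 10 µL holding 0.8 ng/µL enzyme and 2 µM Tyr04 substrate, with DMSO at 2% once compounds are present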
T1 construct: purchased Invitrogen PV3872

[5] = system: NIH3T3 cell; experiment: MTT cytotoxicity against NIH3T3 cells; format: cell-based; details: Mus musculus, NIH3T3; cytotoxicity, MTT, 72 h; read-out: MTT assay against NIH3T3 cell (IC50/nM)
[6] = system: A431 cells; experiment: ELISA assay for cell activity, EGF-treated A431 cells; format: cell-based; details: Homo sapiens, A-431, compound 1 h, then EGF 45 min;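 also: Serum-starved A431 cells, ELISA on lysates read as OD450 minus OD570, inhibition scaled between EGF-stimulated wells (0%) and unstimulated cell control (100%), DMSO 0.5% final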

T1 sequence (P00533 25-1210): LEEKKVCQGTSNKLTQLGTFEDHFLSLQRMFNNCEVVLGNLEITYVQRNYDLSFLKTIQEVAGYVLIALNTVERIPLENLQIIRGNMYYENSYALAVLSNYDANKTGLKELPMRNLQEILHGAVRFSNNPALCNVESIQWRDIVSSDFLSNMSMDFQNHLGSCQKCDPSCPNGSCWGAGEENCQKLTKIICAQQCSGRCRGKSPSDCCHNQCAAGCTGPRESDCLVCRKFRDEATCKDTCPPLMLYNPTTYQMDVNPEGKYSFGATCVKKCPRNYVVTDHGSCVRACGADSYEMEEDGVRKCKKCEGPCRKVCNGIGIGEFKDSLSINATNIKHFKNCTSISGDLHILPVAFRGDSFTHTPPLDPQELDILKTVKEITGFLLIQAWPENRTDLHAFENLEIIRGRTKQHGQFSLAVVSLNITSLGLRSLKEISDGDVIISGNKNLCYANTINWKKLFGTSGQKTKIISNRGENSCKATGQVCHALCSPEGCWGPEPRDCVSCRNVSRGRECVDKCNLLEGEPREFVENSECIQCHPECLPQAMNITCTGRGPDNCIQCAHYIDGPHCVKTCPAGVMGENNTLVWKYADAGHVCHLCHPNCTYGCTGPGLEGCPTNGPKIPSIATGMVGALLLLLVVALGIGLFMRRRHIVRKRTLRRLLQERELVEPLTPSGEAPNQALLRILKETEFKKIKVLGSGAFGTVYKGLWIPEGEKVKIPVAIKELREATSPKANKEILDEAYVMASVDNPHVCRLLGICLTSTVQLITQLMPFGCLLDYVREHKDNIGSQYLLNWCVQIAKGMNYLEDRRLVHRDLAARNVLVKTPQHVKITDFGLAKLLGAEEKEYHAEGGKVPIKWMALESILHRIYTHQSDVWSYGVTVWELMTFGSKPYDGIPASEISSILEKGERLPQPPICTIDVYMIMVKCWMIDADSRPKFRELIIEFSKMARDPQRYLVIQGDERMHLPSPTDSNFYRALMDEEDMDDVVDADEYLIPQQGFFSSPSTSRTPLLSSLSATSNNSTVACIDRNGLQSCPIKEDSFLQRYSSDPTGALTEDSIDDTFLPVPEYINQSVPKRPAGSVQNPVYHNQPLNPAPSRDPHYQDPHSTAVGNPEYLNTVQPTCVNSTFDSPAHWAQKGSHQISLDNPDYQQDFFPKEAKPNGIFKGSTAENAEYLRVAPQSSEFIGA

Row | SMILES | Selective inhibitory activities against cell [IC50(A431 cell)/IC50(H1975 cell)] [1] | IC50 [1] [nM] | IC50 [2] [nM] | Selective inhibitory activity against cells [IC50(A431 cell)/IC50(H1975 cell)] [2] | IC50 [3] [nM] | IC50 [4] [nM] | IC50 [6] [nM] | IC50 [5] [nM]
1 | C=CC(=O)Nc1cc(Nc2ncc(Cl)c(OC3CCCN(C(C)=O)CC3)n2)c(OC)cc1N1CCC(N(C)C)CC1 (centres unmarked) [Compound J-35] | 57.2 | 52 | 35 | 82.8 | 2900 | 80 | 2970 | > 10000
2 | C=CC(=O)Nc1cc(Nc2ncc(Cl)c(OC3CCCN(S(C)(=O)=O)CC3)n2)c(OC)cc1N1CCC(N(C)C)CC1 (centres unmarked) [Compound J-37] | 26 | 36 | 27 | 79.4 | 2140 | 22 | 919 | > 10000
3 | C=CC(=O)Nc1cc(Nc2ncc(Cl)c(OC3CCN(C(C)=O)CC3)n2)c(OC)cc1N1CCC(N(C)C)CC1 [Compound J-38] | 60 | 75 | 66 | 71 | 4670 | 170 | 4490 | > 10000
4 | C=CC(=O)Nc1cc(Nc2ncc(Cl)c(OC3CCN(S(C)(=O)=O)CC3)n2)c(OC)cc1N1CCC(N(C)C)CC1 [Compound J-39] | 11 | 123 | 72 | 60 | 4300 | 39 | 1320 | > 10000
5 | C=CC(=O)Nc1cc(Nc2ncc(Cl)c(O[C@@H]3CCCN(S(C)(=O)=O)C3)n2)c(OC)cc1N(C)CCN(C)C [Compound J-40, (R)—N-(5-(5-chloro-4-(1-(methylsulfonyl)piperidine-3-oxy)pyrimidine-2-amino)-2-((2-(dimethylamino)ethyl)(methyl)amino)-4-methoxyphenyl)acrylamide] | 7.1 | 95 | 50 | 59 | 2950 | 47 | 670 | > 10000

Second part, led by results:

Row | Selective inhibitory activities against cell [IC50(A431 cell)/IC50(H1975 cell)] [1] | IC50 [1] [nM] | IC50 [2] [nM] | Selective inhibitory activity against cells [IC50(A431 cell)/IC50(H1975 cell)] [2] | IC50 [3] [nM] | IC50 [4] [nM] | IC50 [6] [nM] | SMILES | IC50 [5] [nM]
6 | 44 | 18 | 19 | 144.1 | 2740 | 41 | 784 | C=CC(=O)Nc1cc(Nc2ncc(Cl)c(O[C@@H]3CCN(S(C)(=O)=O)C3)n2)c(OC)cc1N1CCC(N(C)C)CC1 [Compound J-45, (R)—N-(5-(5-chloro-4-(1-(methylsulfonyl)pyrrolidine-3-oxy)pyrimidine-2-amino)-2-(4-(dimethylamino)piperidine-1-yl)-4-methoxyphenyl)acrylamide] | 8200
7 | 64 | 13 | 17 | 171.8 | 2920 | 49 | 832 | C=CC(=O)Nc1cc(Nc2ncc(Cl)c(O[C@H]3CCN(S(C)(=O)=O)C3)n2)c(OC)cc1N1CCC(N(C)C)CC1 [Compound J-46] | > 10000
8 | 28.2 | 97 | 46 | 160.5 | 7380 | 227 | 2740 | C=CC(=O)Nc1cc(Nc2ncc(Cl)c(O[C@@H]3CCN(C(C)=O)C3)n2)c(OC)cc1N1CCC(N(C)C)CC1 [Compound J-47] | > 10000
9 | 37.1 | 102 | 56 | 82.4 | 4620 | 610 | 3790 | C=CC(=O)Nc1cc(Nc2ncc(Cl)c(O[C@H]3CCN(C(C)=O)C3)n2)c(OC)cc1N1CCC(N(C)C)CC1 [Compound J-48] | > 10000
10 | 4.5 | 11 | 7 | 76.3 | 534 | 4 | 49 | C=CC(=O)Nc1cc(Nc2ncc(F)c(SC3CN(S(C)(=O)=O)C3)n2)c(OC)cc1N1CCC(N(C)C)CC1 [Compound J-57] | > 10000
11 | 1.3 | 1340 | 359 | 14.1 | 5060 | – | 1760 | C=CC(=O)Nc1cc(Nc2nccc(C3CN(c4cnc5c(cnn5C)c4)C3)n2)c(OC)cc1N(C)CCN(C)C [compound 2, reference compound] | –
